Experimental data: patent US20160031925A1, “AZITHROMYCIN ANTIMICROBIAL DERIVATIVES WITH NON-ANTIBIOTIC PHARMACEUTICAL EFFECT” (priority 2013, published 2016)
Where two headings read alike, the source gives them in different places.

Key:
[1] = test system: Escherichia coli ATCC 8739; assay: Antimicrobial disk susceptibility test (CLSI M2-A9), E. coli; type: cell-based
Method: (§1) Test for the antimicrobial activity of the novel compounds may be performed according to the standards of Clinical and Laboratory Standards Institute, Performance Standards for Antimicrobial Disk Susceptibility Tests; approved Standard; M2-A), vol. 26 NO. 1 9th ed.
as §1, with “A test for” for “Test for”, “compounds were” for “compounds may be”, “ed. The samples were dissolved in 10 ml of sterile Milli-Q water by magnetic stirring overnight at 20° C.” for “ed.”
(§2) Two doses of the samples were tested in duplicate, a) and b). The size of the inhibition zones were measured in mm after incubation.

[2] = test system: Pseudomonas aeruginosa ATCC 9027; assay: Antimicrobial disk susceptibility test (CLSI M2-A9), P. aeruginosa; type: cell-based
Method: as §1
as §1, with “A test for” for “Test for”, “compounds were” for “compounds may be”, “ed. The samples were dissolved in 10 ml of sterile Milli-Q water by magnetic stirring overnight at 20° C.” for “ed.”
as §2

[3] = test system: Staphylococcus aureus ATTC 6538; assay: Antimicrobial disk susceptibility test (CLSI M2-A9), S. aureus; type: cell-based
Method: as §1
as §1, with “A test for” for “Test for”, “compounds were” for “compounds may be”, “ed. The samples were dissolved in 10 ml of sterile Milli-Q water by magnetic stirring overnight at 20° C.” for “ed.”
as §2

[4] = test system: Klebsiella pneumonia ATCC 35657; assay: Antimicrobial disk susceptibility test (CLSI M2-A9), K. pneumonia; type: cell-based
Method: as §1
as §1, with “A test for” for “Test for”, “compounds were” for “compounds may be”, “ed. The samples were dissolved in 10 ml of sterile Milli-Q water by magnetic stirring overnight at 20° C.” for “ed.”
as §2

human airway epithelia = details: reference 6; cited from earlier work
[5] = Escherichia coli, ATCC8739; 5 μg/disk, duplicate a); read-out: size of the inhibition zone, E. coli a)
[6] = Escherichia coli, ATCC8739; 5 μg/disk, duplicate b); read-out: size of the inhibition zone, E. coli b)
[7] = Escherichia coli, ATCC8739; 10 μg/disk, duplicate a); read-out: size of the inhibition zone, E. coli a)
[8] = Escherichia coli, ATCC8739; 10 μg/disk, duplicate b); read-out: size of the inhibition zone, E. coli b)
[9] = Pseudomonas aeruginosa, ATCC9027; 5 μg/disk, duplicate a); read-out: size of the inhibition zone, P. aeruginosa a)
[10] = Pseudomonas aeruginosa, ATCC9027; 5 μg/disk, duplicate b); read-out: size of the inhibition zone, P. aeruginosa b)
[11] = Pseudomonas aeruginosa, ATCC9027; 10 μg/disk, duplicate a); read-out: size of the inhibition zone, P. aeruginosa a)
[12] = Pseudomonas aeruginosa, ATCC9027; 10 μg/disk, duplicate b); read-out: size of the inhibition zone, P. aeruginosa b)
[13] = Staphylococcus aureus, ATTC6538; 5 μg/disk, duplicate a); read-out: size of the inhibition zone, S. aureus a)
[14] = Staphylococcus aureus, ATTC6538; 5 μg/disk, duplicate b); read-out: size of the inhibition zone, S. aureus b)
[15] = Staphylococcus aureus, ATTC6538; 10 μg/disk, duplicate a); read-out: size of the inhibition zone, S. aureus a)
[16] = Staphylococcus aureus, ATTC6538; 10 μg/disk, duplicate b); read-out: size of the inhibition zone, S. aureus b)
[17] = Klebsiella pneumoniae, ATCC35657; 5 μg/disk, duplicate a); read-out: size of the inhibition zone, K. pneumonia a)
[18] = Klebsiella pneumoniae, ATCC35657; 5 μg/disk, duplicate b); read-out: size of the inhibition zone, K. pneumonia b)
[19] = Klebsiella pneumoniae, ATCC35657; 10 μg/disk, duplicate a); read-out: size of the inhibition zone, K. pneumonia a)
[20] = Klebsiella pneumoniae, ATCC35657; 10 μg/disk, duplicate b); read-out: size of the inhibition zone, K. pneumonia b)
[21] = 10 μg/disk, one value per organism (reference)

## CC[C@H]1OC(=O)[C@H](C)C(O[C@H]2C[C@@](C)(OC)[C@@H](O)[C@H](C)O2)[C@H](C)[C@@H](OC2O[C@H](C)C[C@H](N(C)C)[C@H]2C)[C@](C)(O)C[C@@H](C)CN(C)[C@H](C)[C@@H](O)[C@]1(C)O (stereo partly drawn) [PP001]
[1]; [5]
  zone of inhibition at 5 µg/disc: < 1 mm
[1]; [6]
  zone of inhibition at 5 µg/disc: < 1 mm
[1]; [7]
  zone of inhibition at 10 µg/disc: < 1 mm
[1]; [8]
  zone of inhibition at 10 µg/disc: < 1 mm
[2]; [9]
  zone of inhibition at 5 µg/disc: < 1 mm
[2]; [10]
  zone of inhibition at 5 µg/disc: < 1 mm
[2]; [11]
  zone of inhibition at 10 µg/disc: < 1 mm
[2]; [12]
  zone of inhibition at 10 µg/disc: < 1 mm
[3]; [13]
  zone of inhibition at 5 µg/disc: < 1 mm
[3]; [14]
  zone of inhibition at 5 µg/disc: < 1 mm
[3]; [15]
  zone of inhibition at 10 µg/disc: < 1 mm
[3]; [16]
  zone of inhibition at 10 µg/disc: < 1 mm
[4]; [17]
  zone of inhibition at 5 µg/disc: < 1 mm
[4]; [18]
  zone of inhibition at 5 µg/disc: < 1 mm
[4]; [19]
  zone of inhibition at 10 µg/disc: < 1 mm
[4]; [20]
  zone of inhibition at 10 µg/disc: < 1 mm

## Gentamicin [reference compound]
[1]; [21]
  size of the inhibition zone, E. coli: 27.9 mm
[2]; [21]
  size of the inhibition zone, P. aeruginosa: 27.2 mm
[3]; [21]
  size of the inhibition zone, S. aureus: 30.4 mm
[4]; [21]
  size of the inhibition zone, K. pneumonia: 24.7 mm

## CC[C@H]1OC(=O)[C@H](C)[C@@H](O[C@H]2C[C@@](C)(OC)[C@@H](O)[C@H](C)O2)[C@H](C)[C@@H](O[C@@H]2O[C@H](C)C[C@H](N(C)C)[C@H]2O)[C@](C)(O)C[C@@H](C)C(=O)[C@H](C)[C@@H](O)[C@]1(C)O [erythromycin]
Human airway epithelia
  effect on transepithelial electrical resistance / processing of tight junction proteins: not observed

## CCC1OC(=O)C(C)C(OC2CC(C)(OC)CC(C)O2)C(C)C(OC2CC(N(C)C)CC(C)O2)C(C)(O)CC(C)CN(C)C(C)C(O)C1(C)O (stereo not drawn) [PP006]
[1]; 5 μg/disk, duplicate a)
  size of the inhibition zone, E. coli a): <1 mm
[1]; 5 μg/disk, duplicate b)
  size of the inhibition zone, E. coli b): <1 mm
[1]; 10 μg/disk, duplicate a)
  size of the inhibition zone, E. coli a): <1 mm
[1]; 10 μg/disk, duplicate b)
  size of the inhibition zone, E. coli b): <1 mm
[2]; 5 μg/disk, duplicate a)
  size of the inhibition zone, P. aeruginosa a): <1 mm
[2]; 5 μg/disk, duplicate b)
  size of the inhibition zone, P. aeruginosa b): <1 mm
[2]; 10 μg/disk, duplicate a)
  size of the inhibition zone, P. aeruginosa a): <1 mm
[2]; 10 μg/disk, duplicate b)
  size of the inhibition zone, P. aeruginosa b): <1 mm
[3]; 5 μg/disk, duplicate a)
  size of the inhibition zone, S. aureus a): <1 mm
[3]; 5 μg/disk, duplicate b)
  size of the inhibition zone, S. aureus b): <1 mm
[3]; 10 μg/disk, duplicate a)
  size of the inhibition zone, S. aureus a): <1 mm
[3]; 10 μg/disk, duplicate b)
  size of the inhibition zone, S. aureus b): <1 mm
[4]; 5 μg/disk, duplicate a)
  size of the inhibition zone, K. pneumonia a): <1 mm
[4]; 5 μg/disk, duplicate b)
  size of the inhibition zone, K. pneumonia b): <1 mm
[4]; 10 μg/disk, duplicate a)
  size of the inhibition zone, K. pneumonia a): <1 mm
[4]; 10 μg/disk, duplicate b)
  size of the inhibition zone, K. pneumonia b): <1 mm

## CC[C@H]1OC(=O)[C@H](C)C(O[C@H]2C[C@@](C)(OC)[C@@H](C)[C@H](C)O2)[C@H](C)[C@@H](OC2O[C@H](C)C[C@H](N(C)C)[C@H]2O)[C@](C)(O)C[C@@H](C)CN(C)[C@H](C)[C@@H](O)[C@]1(C)O (stereo partly drawn) [PP002]
[1]; [5]
  zone of inhibition at 5 µg/disc: < 1 mm
[1]; [6]
  zone of inhibition at 5 µg/disc: < 1 mm
[1]; [7]
  zone of inhibition at 10 µg/disc: < 1 mm
[1]; [8]
  zone of inhibition at 10 µg/disc: < 1 mm
[2]; [9]
  zone of inhibition at 5 µg/disc: < 1 mm
[2]; [10]
  zone of inhibition at 5 µg/disc: < 1 mm
[2]; [11]
  zone of inhibition at 10 µg/disc: < 1 mm
[2]; [12]
  zone of inhibition at 10 µg/disc: < 1 mm
[3]; [13]
  zone of inhibition at 5 µg/disc: < 1 mm
[3]; [14]
  zone of inhibition at 5 µg/disc: < 1 mm
[3]; [15]
  zone of inhibition at 10 µg/disc: < 1 mm
[3]; [16]
  zone of inhibition at 10 µg/disc: < 1 mm
[4]; [17]
  zone of inhibition at 5 µg/disc: < 1 mm
[4]; [18]
  zone of inhibition at 5 µg/disc: < 1 mm
[4]; [19]
  zone of inhibition at 10 µg/disc: < 1 mm
[4]; [20]
  zone of inhibition at 10 µg/disc: < 1 mm

## CCC1OC(=O)C(C)C(OC2CC(C)(OC)C(C)C(C)O2)C(C)C(OC2OC(C)CC(N(C)C)C2C)C(C)(O)CC(C)CN(C)C(C)C(O)C1(C)O (stereo not drawn) [PP003]
[1]; 5 μg/disk, duplicate a)
  size of the inhibition zone, E. coli a): <1 mm
[1]; 5 μg/disk, duplicate b)
  size of the inhibition zone, E. coli b): <1 mm
[1]; 10 μg/disk, duplicate a)
  size of the inhibition zone, E. coli a): <1 mm
[1]; 10 μg/disk, duplicate b)
  size of the inhibition zone, E. coli b): <1 mm
[2]; 5 μg/disk, duplicate a)
  size of the inhibition zone, P. aeruginosa a): <1 mm
[2]; 5 μg/disk, duplicate b)
  size of the inhibition zone, P. aeruginosa b): <1 mm
[2]; 10 μg/disk, duplicate a)
  size of the inhibition zone, P. aeruginosa a): <1 mm
[2]; 10 μg/disk, duplicate b)
  size of the inhibition zone, P. aeruginosa b): <1 mm
[3]; 5 μg/disk, duplicate a)
  size of the inhibition zone, S. aureus a): <1 mm
[3]; 5 μg/disk, duplicate b)
  size of the inhibition zone, S. aureus b): <1 mm
[3]; 10 μg/disk, duplicate a)
  size of the inhibition zone, S. aureus a): <1 mm
[3]; 10 μg/disk, duplicate b)
  size of the inhibition zone, S. aureus b): <1 mm
[4]; 5 μg/disk, duplicate a)
  size of the inhibition zone, K. pneumonia a): <1 mm
[4]; 5 μg/disk, duplicate b)
  size of the inhibition zone, K. pneumonia b): <1 mm
[4]; 10 μg/disk, duplicate a)
  size of the inhibition zone, K. pneumonia a): <1 mm
[4]; 10 μg/disk, duplicate b)
  size of the inhibition zone, K. pneumonia b): <1 mm
